How the values were obtained:
ERβ = ERβ (Homo sapiens, UniProt Q92731); assay: PI3K activation; type: cell-based; conditions: ERβ-transfected COS7 cells; concentrations 100-fold greater than required to inhibit GPR30
adult male ICR mice = assay: Mouse depression assay; type: in vivo; conditions: intraperitoneal
ERα [1] = target: T1, ERα (Homo sapiens, UniProt P03372); assay: Competitive binding with E2-Alexa633 in COS7 cells transfected with ERα-GFP
T1 sequence (P03372 1-595): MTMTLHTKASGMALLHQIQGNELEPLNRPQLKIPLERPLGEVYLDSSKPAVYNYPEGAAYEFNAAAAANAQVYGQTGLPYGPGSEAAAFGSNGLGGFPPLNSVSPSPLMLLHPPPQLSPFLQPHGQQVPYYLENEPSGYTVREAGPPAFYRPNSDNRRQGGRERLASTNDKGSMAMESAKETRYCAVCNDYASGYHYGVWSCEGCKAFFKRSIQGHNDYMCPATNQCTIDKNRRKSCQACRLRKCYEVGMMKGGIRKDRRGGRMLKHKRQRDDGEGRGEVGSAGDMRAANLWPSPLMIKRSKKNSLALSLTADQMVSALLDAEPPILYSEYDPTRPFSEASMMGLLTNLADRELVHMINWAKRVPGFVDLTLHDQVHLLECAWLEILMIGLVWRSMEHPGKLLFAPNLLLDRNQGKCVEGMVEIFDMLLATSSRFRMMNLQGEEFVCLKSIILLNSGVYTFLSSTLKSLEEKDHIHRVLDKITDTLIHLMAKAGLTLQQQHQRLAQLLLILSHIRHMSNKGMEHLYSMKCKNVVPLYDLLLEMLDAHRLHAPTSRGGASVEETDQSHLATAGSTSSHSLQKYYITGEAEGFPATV

GPR30 [2] = target: T2, GPR30 (Homo sapiens, UniProt Q99527); assay: PI3K activation; type: cell-based; conditions: SKBr3 cells
T2 sequence (Q99527 whole entry): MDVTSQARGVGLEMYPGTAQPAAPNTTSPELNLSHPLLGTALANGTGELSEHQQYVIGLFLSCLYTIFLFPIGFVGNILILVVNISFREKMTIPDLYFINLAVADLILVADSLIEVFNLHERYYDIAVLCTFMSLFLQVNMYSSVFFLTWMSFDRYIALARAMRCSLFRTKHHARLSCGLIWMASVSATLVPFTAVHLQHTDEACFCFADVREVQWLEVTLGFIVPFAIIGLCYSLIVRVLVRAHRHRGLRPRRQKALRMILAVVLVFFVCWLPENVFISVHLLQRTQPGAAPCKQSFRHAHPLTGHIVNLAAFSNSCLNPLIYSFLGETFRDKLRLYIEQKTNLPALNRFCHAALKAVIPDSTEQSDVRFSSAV

uterine epithelia = assay: Mouse uterine estrogenicity assay; type: in vivo; conditions: G15 plus E2 (0.74 nmol); dose-dependent, maximal at 10-fold molar excess of G15
GPR30 [3] = target: T2, GPR30; assay: Intracellular calcium mobilization in indo1-AM-loaded SKBr3 cells; type: cell-based; conditions: G15 1 μM
GPR30 [4] = target: T2, GPR30; assay: PI3K activation; type: cell-based; conditions: GPR30-transfected COS7 cells
ERα [5] = target: T1, ERα; assay: PI3K activation; type: cell-based; conditions: ERα-transfected COS7 cells; concentrations 100-fold greater than required to inhibit GPR30

Chain of ERβ (Q92731 whole entry, species assumed): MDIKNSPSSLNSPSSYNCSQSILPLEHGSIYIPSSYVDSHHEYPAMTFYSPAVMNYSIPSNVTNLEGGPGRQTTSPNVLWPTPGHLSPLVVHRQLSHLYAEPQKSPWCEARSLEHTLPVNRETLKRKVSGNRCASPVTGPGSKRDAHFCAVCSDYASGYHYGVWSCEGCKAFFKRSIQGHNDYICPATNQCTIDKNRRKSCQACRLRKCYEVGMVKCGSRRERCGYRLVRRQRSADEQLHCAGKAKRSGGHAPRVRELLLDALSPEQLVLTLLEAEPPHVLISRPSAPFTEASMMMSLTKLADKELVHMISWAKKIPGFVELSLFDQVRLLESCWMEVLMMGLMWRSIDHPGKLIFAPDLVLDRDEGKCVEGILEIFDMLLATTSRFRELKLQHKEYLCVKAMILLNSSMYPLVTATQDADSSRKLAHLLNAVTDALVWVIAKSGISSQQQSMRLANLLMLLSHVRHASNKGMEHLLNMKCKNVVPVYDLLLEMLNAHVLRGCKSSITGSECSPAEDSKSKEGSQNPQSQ

Structure (SMILES): Brc1cc2c(cc1[C@@H]1Nc3ccccc3[C@@H]3C=CC[C@@H]31)OCO2 (racemic) [G15, 4-(6-Bromo-benzo[1,3]dioxol-5-yl)-3a,4,5,9b-tetrahydro-3H-cyclopenta[c]quinoline]
- effect on estrogen-mediated PI3K response (ERβ): no effect
- effect of G15 pretreatment on the G-1 effect on immobility time (adult male ICR mice; G15 10 nmol/mouse + G-1 1 nmol/mouse): significantly attenuated
- effect of G15 pretreatment on the E2 effect on immobility time (adult male ICR mice; G15 25 nmol/mouse + soluble E2 5 mg/kg): significantly attenuated
- Ki (ERα [1]): > 10 µM
- inhibition of estrogen and G-1 stimulation of PI3K (GPR30 [2]): able to inhibit
- reduction of E2-induced uterine epithelial proliferation (uterine epithelia): approximately 50%
- mobilization of intracellular calcium by compound alone (GPR30 [3]; G-1 200 nM, E2 100 nM): incapable of inducing a response
- effect of G15 exposure on subsequent calcium response to G-1 or estrogen (GPR30 [3]; then G-1 200 nM or E2 100 nM): substantially reduced the response
- inhibition of G-1-mediated activation of PI3K (GPR30 [4]): capable of inhibiting
- inhibition of estrogen-mediated PI3K response (GPR30 [4]): effectively blocked
- effect on estrogen-mediated PI3K response (ERα [5]): no effect
